The source of these data is PubChem BioAssay AID276 (DTP/NCI, 2004).

Several values for one entry are separate records, joined by “and”; a condition that tells them apart may be missing. Equal entries are not always repeated. Toxic doses and inconclusive results are not listed.

For this test, the system named is B6C3F1 mice, Lewis lung carcinoma iv, survival T/C. Nature of the test: NCI In Vivo Anticancer Drug Screen. Data for tumor model Lewis Lung Carcinoma (intravenous) in B6C3F1 mice. The following applies: endpoint: median survival time, higher = longer survival. In outline: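 T/C ratio derived from survival of compound-treated versus vehicle-treated mice bearing transplantable tumors.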

Setting [1] is: dose: 5.0 mg/kg/injection, schedule: Q01DX009 (ip), vehicle: saline.
Where [2] appears, read: dose: 10.0 mg/kg/injection, schedule: Q01DX009 (ip), vehicle: saline.
Setting [3] is: dose: 6.25 mg/kg/injection, schedule: Q01DX009 (ip), vehicle: saline with Tween-80.
[4] abbreviates: dose: 12.5 mg/kg/injection, schedule: Q01DX009 (ip), vehicle: saline with Tween-80.
Setting [5] is: dose: 0.5 mg/kg/injection, schedule: Q01DX009 (ip), vehicle: saline.
Where [6] appears, read: dose: 2.0 mg/kg/injection, schedule: Q01DX009 (ip), vehicle: saline.
Where [7] appears, read: dose: 25.0 mg/kg/injection, schedule: Q01DX009 (ip), vehicle: saline with Tween-80.
The mark [8] stands for this setting: dose: 50.0 mg/kg/injection, schedule: Q01DX009 (ip), vehicle: saline with Tween-80.
[9] abbreviates: dose: 100.0 mg/kg/injection, schedule: Q01DX009 (ip), vehicle: saline with Tween-80.
Where [10] appears, read: dose: 200.0 mg/kg/injection, schedule: Q01DX009 (ip), vehicle: saline with Tween-80.
[11] abbreviates: dose: 25.0 mg/kg/injection, schedule: Q01DX009 (ip), vehicle: suspension in saline.
[12] abbreviates: dose: 50.0 mg/kg/injection, schedule: Q01DX009 (ip), vehicle: suspension in saline.
[13] abbreviates: dose: 100.0 mg/kg/injection, schedule: Q01DX009 (ip), vehicle: suspension in saline.
The mark [14] stands for this setting: dose: 200.0 mg/kg/injection, schedule: Q01DX009 (ip), vehicle: suspension in saline.
[15] abbreviates: dose: 50.0 mg/kg/injection, schedule: Q01DX009 (ip), vehicle: saline.
Setting [16] is: dose: 100.0 mg/kg/injection, schedule: Q01DX009 (ip), vehicle: saline.
Where [17] appears, read: dose: 200.0 mg/kg/injection, schedule: Q01DX009 (ip), vehicle: saline.
[18] abbreviates: dose: 12.5 mg/kg/injection, schedule: Q01DX009 (ip), vehicle: saline.
Setting [19] is: dose: 25.0 mg/kg/injection, schedule: Q01DX009 (ip), vehicle: saline.

As to `O=C1c2ccccc2C(=O)c2c(NCCNCCO)ccc(O)c21`, the T/C is, setting by setting: (dose: 2.5 mg/kg/injection, schedule: Q01DX009 (ip), vehicle: saline) 104 % of control; under setting [1], 116 % of control; under setting [2], 96 % of control; (dose: 20.0 mg/kg/injection, schedule: Q01DX009 (ip), vehicle: saline) 104 % of control; (dose: 40.0 mg/kg/injection, schedule: Q01DX009 (ip), vehicle: saline) 117 % of control; (dose: 80.0 mg/kg/injection, schedule: Q01DX009 (ip), vehicle: saline) 117 % of control.
In the case of `CNC(=O)c1cccc2c(Nc3ccc(NS(C)(=O)=O)cc3OC)c3cccc(C)c3nc12`, the T/C (dose: 3.0 mg/kg/injection, schedule: Q04DX003 (ip), vehicle: saline + alcohol) was 114 % of control; the T/C (dose: 3.12 mg/kg/injection, schedule: Q04DX003 (ip), vehicle: saline + alcohol) is 118 % of control; the T/C (dose: 6.0 mg/kg/injection, schedule: Q04DX003 (ip), vehicle: saline + alcohol) was 156 % of control; the T/C (dose: 12.5 mg/kg/injection, schedule: Q04DX003 (ip), vehicle: saline + alcohol) was 181 % of control and 309 % of control (2×); the T/C (dose: 12.5 mg/kg/injection, schedule: Q04DX003 (ip), vehicle: water) was 178 % of control; the T/C (dose: 25.0 mg/kg/injection, schedule: Q04DX003 (ip), vehicle: water) is 260 % of control.
As for `C/C(=N\NC(=S)N1CCN(c2ccccn2)CC1)c1ccccn1`, the T/C was 109 % of control (dose: 6.25 mg/kg/injection, schedule: Q01DX009 (ip), vehicle: water); 104 % of control (dose: 12.5 mg/kg/injection, schedule: Q01DX009 (ip), vehicle: water); 113 % of control (dose: 25.0 mg/kg/injection, schedule: Q01DX009 (ip), vehicle: water).
For `NC(=O)/C=C/C(=O)c1c(Cl)cccc1Cl`, the T/C (dose: 0.79 mg/kg/injection, schedule: Q01DX009 (ip), vehicle: saline with Tween-80) is 111 % of control; the T/C (dose: 1.56 mg/kg/injection, schedule: Q01DX009 (ip), vehicle: saline with Tween-80) was 88 % of control; the T/C (dose: 3.12 mg/kg/injection, schedule: Q01DX009 (ip), vehicle: saline with Tween-80) is 117 % of control; the T/C under setting [3] was 103 % of control; the T/C under setting [4] was 108 % of control.
Take `N[C@@H](Cc1ccc(N(CCCl)CCCl)cc1)C(=O)O`: the T/C was 102 % of control under setting [5]; 95 % of control (dose: 1.0 mg/kg/injection, schedule: Q01DX009 (ip), vehicle: saline); 99 % of control under setting [6].
On to `C=C(C)C(=NC(C)(C)C)Nc1ccccc1`, for which the T/C runs as follows: under setting [3], 99 % of control; under setting [4], 99 % of control; under setting [7], 90 % of control; under setting [8], 86 % of control; under setting [9], 99 % of control; under setting [10], 90 % of control.
Regarding `CCOC(=O)c1cn(C)c2c1C(O)=C(C(=O)OC)CC(=O)N2`, the T/C is, setting by setting: under setting [7], 97 % of control; under setting [8], 104 % of control; under setting [9], 113 % of control; under setting [10], 99 % of control; (dose: 400.0 mg/kg/injection, schedule: Q01DX009 (ip), vehicle: saline with Tween-80) 105 % of control.
Regarding `O=C1NC(O)c2ccccc2O1` (configuration not stated), the T/C by setting is: under setting [11], 106 % of control; under setting [12], 89 % of control; under setting [13], 107 % of control; under setting [14], 97 % of control.
For the compound `O=C(O)C1CC(O)CN1` (configuration not stated), the T/C is, setting by setting: under setting [15], 98 % of control; under setting [16], 91 % of control; under setting [17], 91 % of control; (dose: 400.0 mg/kg/injection, schedule: Q01DX009 (ip), vehicle: saline) 114 % of control; (dose: 800.0 mg/kg/injection, schedule: Q01DX009 (ip), vehicle: saline) 109 % of control.
In the case of `C=C(C)[C@@H]1CCc2c(O)c(O)c(=O)cc(C)c2C1`, the T/C runs as follows: (dose: 3.12 mg/kg/injection, schedule: Q01DX009 (ip), vehicle: Klucel (hydroxypropylcellulose) (HPC)) 90 % of control; (dose: 6.25 mg/kg/injection, schedule: Q01DX009 (ip), vehicle: Klucel (hydroxypropylcellulose) (HPC)) 92 % of control; (dose: 25.0 mg/kg/injection, schedule: Q01DX009 (ip), vehicle: Klucel (hydroxypropylcellulose) (HPC)) 102 % of control; (dose: 50.0 mg/kg/injection, schedule: Q01DX009 (ip), vehicle: Klucel (hydroxypropylcellulose) (HPC)) 97 % of control; (dose: 100.0 mg/kg/injection, schedule: Q01DX009 (ip), vehicle: Klucel (hydroxypropylcellulose) (HPC)) 90 % of control.
As for `N=c1c(C(=O)OCc2ccccc2)ncc(CCl)n1O`, the T/C runs as follows: under setting [7], 96 % of control; under setting [8], 97 % of control; under setting [9], 109 % of control; under setting [10], 92 % of control.
For `O=c1[nH]cnc2[nH]ncc12`, the T/C runs as follows: (dose: 12.5 mg/kg/injection, schedule: Q01DX009 (ip), vehicle: suspension in saline) 95 % of control; under setting [11], 105 % of control; under setting [12], 95 % of control; under setting [13], 106 % of control; under setting [14], 112 % of control; (dose: 400.0 mg/kg/injection, schedule: Q01DX009 (ip), vehicle: suspension in saline) 120 % of control.
Regarding `O=N[O-].O=N[O-].O=N[O-].[Co+3].[NH-]CC[N-]CC[NH-]`, the T/C by setting is: (dose: 6.25 mg/kg/injection, schedule: Q01DX009 (ip), vehicle: saline) 98 % of control; under setting [18], 115 % of control; under setting [19], 117 % of control; under setting [15], 90 % of control.
On to `CCCCC(=O)OCC1OC(n2cnc3c(=S)nc[nH]c32)C(OC(=O)CCCC)C1OC(=O)CCCC` (configuration not stated), for which the T/C is, setting by setting: under setting [4], 99 % of control; under setting [7], 100 % of control.
`c1ccc(P(CCNCCP(c2ccccc2)c2ccccc2)c2ccccc2)cc1`: the T/C is 104 % of control under setting [7] and 97 % of control under setting [8].
With `COC1=C2C[C@@H](C)C[C@@H](OC)[C@@H](O)[C@H](C)/C=C(\C)[C@@H](OC(N)=O)[C@H](OC)/C=C\C=C(/C)C(=O)NC(=CC1=O)C2=O`, the T/C was 96 % of control (dose: 0.12 mg/kg/injection, schedule: Q01DX009 (ip), vehicle: saline with Tween-80); 109 % of control (dose: 0.13 mg/kg/injection, schedule: Q01DX009 (ip), vehicle: saline with Tween-80); 96 % of control and 110 % of control (dose: 0.25 mg/kg/injection, schedule: Q01DX009 (ip), vehicle: saline with Tween-80); 101 % of control and 108 % of control (dose: 0.5 mg/kg/injection, schedule: Q01DX009 (ip), vehicle: saline with Tween-80); 101 % of control and 106 % of control (dose: 1.0 mg/kg/injection, schedule: Q01DX009 (ip), vehicle: saline with Tween-80); 100 % of control and 106 % of control (dose: 2.0 mg/kg/injection, schedule: Q01DX009 (ip), vehicle: saline with Tween-80). Moreover, for the setting “dose: 4.0 mg/kg/injection, schedule: Q01DX009 (ip), vehicle: saline with Tween-80”, the T/C was 102 % of control.
For the compound `Nc1nc(=S)c2[nH]cnc2[nH]1`, the T/C is, setting by setting: under setting [5], 104 % of control; under setting [6], 114 % of control.
On to `O=CC(S)CO` (configuration not stated), for which the T/C runs as follows: under setting [18], 105 % of control and 107 % of control; under setting [19], 95 % of control and 107 % of control; under setting [15], 101 % of control and 102 % of control; under setting [16], 101 % of control and 112 % of control; under setting [17], 96 % of control and 102 % of control.
With `O=NN(CCF)C(=O)NCCO`, the T/C by setting is: under setting [1], 238 % of control; under setting [2], 215 % of control.
